Structures are written as SMILES. pIC50: −log10 of the molar value.

The target in one assay is HDAC. The assay can be described thus: Assay of enzyme inhibition of HDAC (BIOMOL kit, fluorescence). The assay is classed as biochemical. The following applies: nuclear fraction of Hela cells; substrate 200 µM; 15 min at RT. On the procedure: The in-vitro activity of HDAC inhibitors was assayed using a BIOMOL Kit, according to the instructions from the manufacturer (Biomolecular Research Laborator). 15 µl of 30 x diluted nuclear fraction of Hela cells, was diluted to 50 µl with the assay buffer containing the HDAC inhibitor and the substrate (lysine with acetylated amino group on the side chain) at a concentration of 200 µM. The samples were incubated for 15 min at RT and then exposed to a developer (10 min at RT). In this last step a fluorophore was produced, whose fluorescence was measured using an excitation wavelength of 355 nm and an emission at 460 nm. The IC50 was calculated using GraphPad Software.

The subject of the next assay is A549. Nature of the assay: Cell growth, CellTiter-Glo Luminescent Cell Viability Assay (antiproliferative assay). The class given is cell-based. The following applies: Homo sapiens; A549 cells, incubated for 72 h. An excerpt: (§1) CellTiter-Glo® Luminescent Cell Viability Assay (Promega) is a homogeneous method of determining the number of viable cells in culture based on quantitation of the present ATP, which indicates the presence of metabolically active cells. The homogeneous assay procedure involves addition of a single reagent (CellTiter-Glo® Reagent) directly to the cells, which leads to cell lysis and generation of a luminescent signal proportional to the amount of the ATP and the number of cells present in culture. The assay relies on the properties of a proprietary thermostable luciferase (Ultra-Glo® recombinant luciferase), which generates a luminescent signal. K562, A549, and HCT-116 cells, in exponential growth, were incubated for 72 h with different concentrations of the inhibitors. After 72 h, a volume of CellTiter-Glo® Reagent equal to the volume of cell culture medium was added. The content was mixed for 2 min to induce cell lysis. The luminescence was recorded after further 10 min at RT in order to obtain a stable luminescent signal.
(§2) The IC50 was calculated using GraphPad Software.
On the technique in general: ATP-based viability assays read luminescence as a measure of living cells.

The next assay has as its system HCT-116. The description is as above. The class given is cell-based. The note with it: Homo sapiens; HCT-116 cells, incubated for 72 h; read-out: HCT116 IC50.
Excerpt: as §1, §2

In a further assay the test system is K562. The description is as above. The class given is cell-based. The note with it: Homo sapiens; K562 cells, incubated for 72 h.
Excerpt: as §1, §2

A word on the pIC50: it is −log10 of the IC50, conventionally taken in molar units. `CCN1CCCC2(CC(=O)c3cc(/C=C/C(=O)NO)ccc3O2)C1` (racemic) [Example 48, (±)-(E)-3-[1'-Ethyl-4-oxo-spiro(chromane-2,3'-piperidine)-6-yl]-N-hydroxy-acrylamide] gave a pIC50 on HDAC of 6.00 to 7.00.

As for `O=C(/C=C/c1ccc2c(c1)C(=NO)CC1(CCCN(C3CCCC3)C1)O2)NO` (centres unmarked) [Example 54, (E)-3-(1'-Cyclopentyl-4-(hydroxyimino)spiro[chroman-2,3'-piperidine]-6-yl)-N-hydroxyacrylamide], the negative-log IC50 (pIC50) in the assay with A549 is ≥ 6.00; in the assay with HCT-116 it was ≥ 6.00; in the assay with K562, ≥ 6.00; against HDAC it was ≥ 7.00.

Consider `O=C(/C=C/c1ccc2c(c1)C(=O)CC1(CN(CCc3ccccc3)C1)O2)NO` [Example 32, (E)-3-[1'-(2-Phenyl-ethyl)-4-oxo-spiro(chromane-2,3'-azetidine)-6-yl]-N-hydroxy-acrylamide], for which the negative-log IC50 (pIC50) was ≥ 6.00 with A549, ≥ 6.00 with HCT-116, ≥ 6.00 with K562 and 6.00 to 7.00 against HDAC.

For `O=C(/C=C/c1ccc2c(c1)C(=O)CC1(CCCN(Cc3ccc(F)cc3)CC1)O2)NO` (racemic) [Example 29, (±)-(E)-3-[1'-(4-Fluoro-benzyl)-4-oxo-spiro(chromane-2,4'-azepane)-6-yl]-N-hydroxy-acrylamide], the pIC50 in the assay with A549 is ≥ 6.00; with HCT-116, ≥ 6.00; with K562, ≥ 6.00; against HDAC it was 6.00 to 7.00.

With `O=C(/C=C/c1ccc2c(c1)C(=O)CC1(CCCN(Cc3ccccc3)CC1)O2)NO` (racemic) [Example 23, (±)-(E)-3-[1'-Benzyl-4-oxo-spiro(chromane-2,4'-azepane)-6-yl]-N-hydroxy-acrylamide], the pIC50 in the assay with A549 was ≥ 6.00; with HCT-116, ≥ 6.00; in the assay on K562 it was ≥ 6.00; against HDAC, ≥ 7.00.

As to `CCOC(=O)N1CCCC2(CC1)CC(=O)c1cc(/C=C/C(=O)NO)ccc1O2` (racemic) [Example 27, (±)-(E)-3-[1'-Ethyloxycarbonyl-4-oxo-spiro(chromane-2,4'-azepane)-6-yl]-N-hydroxy-acrylamide], the negative-log IC50 (pIC50) in the assay on A549 was ≤ 5.52; in the assay on HCT-116, 5.52 to 6.00; in the assay with K562, 5.52 to 6.00; on HDAC it was 6.00 to 7.00.

With `O=C(/C=C/c1ccc2c(c1)C(=O)CC1(CCCNC1)O2)NO` (racemic) [Example 12, (±)-(E)-3-[4-Oxo-spiro(chromane-2,3'-piperidine)-6-yl]-N-hydroxy-acrylamide], the pIC50 with A549 is ≥ 6.00; in the assay with HCT-116 it was ≥ 6.00; with K562, ≥ 6.00; on HDAC, 6.00 to 7.00.

Consider `O=C(/C=C/c1ccc2c(c1)C(=O)CC1(CN(C(=O)c3ccccc3)C1)O2)NO` [Example 37, (E)-3-[1'-Benzoyl-4-oxo-spiro(chromane-2,3'-azetidine)-6-yl]-N-hydroxy-acrylamide], for which the pIC50 in the assay with A549 was 5.52 to 6.00; with HCT-116 it was ≥ 6.00; in the assay with K562, ≥ 6.00; at HDAC it was ≥ 7.00.

`CCOC(=O)N1CCCC2(CC(=O)c3cc(/C=C/C(=O)NO)ccc3O2)C1` (racemic) [Example 15, (±)-(E)-3-[1'-Ethyloxycarbonyl-4-oxo-spiro(chromane-2,3'-piperidine)-6-yl]-N-hydroxy-acrylamide]: the negative logarithm of the IC50 (pIC50) in the assay on A549 is 5.52 to 6.00; in the assay with HCT-116, ≥ 6.00; with K562, ≥ 6.00; against HDAC, 6.00 to 7.00.

For the compound `CCOC(=O)N1CCC2(CC(=O)c3cc(/C=C/C(=O)NO)ccc3O2)C1` (racemic) [Example 8, (±)-(E)-3-[1'-Ethyloxycarbonyl-4-oxo-spiro(chromane-2,3'-pyrrolidine)-6-yl]-N-hydroxy-acrylamide], the pIC50 in the assay on A549 was ≥ 6.00; with HCT-116 it was ≥ 6.00; in the assay with K562 it was ≥ 6.00; against HDAC, 6.00 to 7.00.

For the compound `Cn1cc(CN2CC3(CC(=O)c4cc(/C=C/C(=O)NO)ccc4O3)C2)c2ccccc21` [Example 44, (E)-3-[1'-(1-Methyl-1H-indol-3-ylmethyl)-4-oxo-spiro(chromane-2,3'-azetidine)-6-yl]-N-hydroxy-acrylamide], the pIC50 in the assay with A549 is ≥ 6.00; with HCT-116 it was ≥ 6.00; in the assay on K562 it was ≥ 6.00; against HDAC, ≥ 7.00.

Regarding `CC(C)N1CCCC2(CC(=O)c3cc(/C=C/C(=O)NO)ccc3O2)C1` (racemic) [Example 49, (±)-(E)-3-[1'-Isopropyl-4-oxo-spiro(chromane-2,3'-piperidine)-6-yl]-N-hydroxy-acrylamide], the pIC50 in the assay on A549 is ≥ 6.00; in the assay on HCT-116 it was ≥ 6.00; in the assay with K562 it was ≥ 6.00; against HDAC, 6.00 to 7.00.

For `CN1CC2(CC(=O)c3cc(/C=C/C(=O)NO)ccc3O2)C1` [Example 34, (E)-3-[1'-Methyl-4-oxo-spiro(chromane-2,3'-azetidine)-6-yl]-N-hydroxy-acrylamide], the pIC50 in the assay with A549 is ≥ 6.00; in the assay with HCT-116 it was ≥ 6.00; with K562, ≥ 6.00; against HDAC, 6.00 to 7.00.

With `O=C(/C=C/c1ccc2c(c1)C(=NOCc1ccccc1)CC1(CCCN(CCc3ccccc3)C1)O2)NO` (centres unmarked) [Example 55, (E)-3-(4-(Benzyloxyimino)-1'-phenethylspiro[chroman-2,3'-piperidine]-6-yl)-N-hydroxyacrylamide], the pIC50 was 5.52 to 6.00 in the assay on A549, ≥ 6.00 in the assay on HCT-116, ≥ 6.00 in the assay on K562 and ≤ 6.00 against HDAC.

Take `CC(=O)N1CC2(CC(=O)c3cc(/C=C/C(=O)NO)ccc3O2)C1` [Example 36, (E)-3-[1'-Acetyl-4-oxo-spiro(chromane-2,3'-azetidine)-6-yl]-N-hydroxy-acrylamide]: the negative-log IC50 (pIC50) with A549 was ≤ 5.52; with HCT-116 it was ≤ 5.52; in the assay on K562, ≤ 5.52; against HDAC, 6.00 to 7.00.

With `CON=C1CC2(CCCN(Cc3ccc(F)cc3)C2)Oc2ccc(/C=C/C(=O)NO)cc21` (centres unmarked) [Example 53, (E)-3-(1'-(4-Fluorobenzyl)-4-(methoxyimino)spiro[chroman-2,3'-piperidine]-6-yl)-N-hydroxyacrylamide], the pIC50 was ≤ 5.52 in the assay on A549, 5.52 to 6.00 in the assay with HCT-116, 5.52 to 6.00 in the assay on K562 and ≤ 6.00 against HDAC.

On HDAC, `Cn1cc(CN2CCCC3(CC2)CC(=O)c2cc(/C=C/C(=O)NO)ccc2O3)c2ccccc21` (racemic) [Example 47, (±)-(E)-3-[1'-(1-Methyl-1H-indol-3-ylmethyl)-4-oxo-spiro(chromane-2,4'-azepane)-6-yl]-N-hydroxy-acrylamide] showed a pIC50 of 6.00 to 7.00.

As for `O=C(/C=C/c1ccc2c(c1)C(=O)CC1(CCCN(C3CCCC3)C1)O2)NO` (racemic) [Example 50, (±)-(E)-3-[1'-Cyclopentyl-4-oxo-spiro(chromane-2,3'-piperidine)-6-yl]-N-hydroxy-acrylamide], the pIC50 was ≥ 6.00 with A549, ≥ 6.00 in the assay on HCT-116, ≥ 6.00 in the assay with K562 and ≥ 7.00 on HDAC.

Take `O=C(/C=C/c1ccc2c(c1)C(=O)CC1(CCCN(CCc3ccccc3)CC1)O2)NO` (racemic) [Example 28, (±)-(E)-3-[1'-(2-Phenyl-ethyl)-4-oxo-spiro(chromane-2,4'-azepane)-6-yl]-N-hydroxy-acrylamide]: the pIC50 in the assay with A549 was ≥ 6.00; with HCT-116, ≥ 6.00; with K562, ≥ 6.00; against HDAC it was ≥ 7.00.

For the compound `O=C(/C=C/c1ccc2c(c1)C(=O)CC1(CCN(Cc3ccccc3)C1)O2)NO` (racemic) [Example 2, (±)-(E)-3-[1'-Benzyl-4-oxo-spiro(chromane-2,3'-pyrrolidine)-6-yl]-N-hydroxy-acrylamide], the negative logarithm of the IC50 (pIC50) with A549 is ≥ 6.00; with HCT-116 it was ≥ 6.00; in the assay on K562, ≥ 6.00; against HDAC it was ≥ 7.00.

As for `CC(=O)N1CCC2(CC(=O)c3cc(/C=C/C(=O)NO)ccc3O2)C1` (racemic) [Example 5, (±)-(E)-3-[1'-Acetyl-4-oxo-spiro(chromane-2,3'-pyrrolidine)-6-yl]-N-hydroxy-acrylamide], the negative logarithm of the IC50 (pIC50) with A549 was ≤ 5.52; in the assay on HCT-116, ≤ 5.52; in the assay with K562 it was ≤ 5.52; on HDAC, 6.00 to 7.00.

`CN1CCCC2(CC1)CC(=O)c1cc(/C=C/C(=O)NO)ccc1O2` (racemic) [Example 26, (±)-(E)-3-[1'-Methyl-4-oxo-spiro(chromane-2,4'-azepane)-6-yl]-N-hydroxy-acrylamide]: the pIC50 with A549 was ≥ 6.00; in the assay on HCT-116, ≥ 6.00; in the assay with K562, ≥ 6.00; against HDAC, 6.00 to 7.00.

On to `Cn1cc(CN2CCCC3(CC(=O)c4cc(/C=C/C(=O)NO)ccc4O3)C2)c2ccccc21` (racemic) [Example 45, (±)-(E)-3-[1'-(1-Methyl-1H-indol-3-ylmethyl)-4-oxo-spiro(chromane-2,3'-piperidine)-6-yl]-N-hydroxy-acrylamide], for which the negative logarithm of the IC50 (pIC50) with A549 is ≥ 6.00; in the assay on HCT-116, ≥ 6.00; in the assay on K562, ≥ 6.00; on HDAC, 6.00 to 7.00.

The record behind these values is patent EP2488529B1, “Spirocyclic derivatives as histone deacetylase inhibitors” (DAC S.r.l., priority 2009, dated 2011).
